These results are taken from ChEMBL document CHEMBL5729007, “Triaryl compounds for treatment of PD-L1 diseases” (2022).

Sequence of Programmed cell death 1 ligand 1 (Q9NZQ7 whole entry): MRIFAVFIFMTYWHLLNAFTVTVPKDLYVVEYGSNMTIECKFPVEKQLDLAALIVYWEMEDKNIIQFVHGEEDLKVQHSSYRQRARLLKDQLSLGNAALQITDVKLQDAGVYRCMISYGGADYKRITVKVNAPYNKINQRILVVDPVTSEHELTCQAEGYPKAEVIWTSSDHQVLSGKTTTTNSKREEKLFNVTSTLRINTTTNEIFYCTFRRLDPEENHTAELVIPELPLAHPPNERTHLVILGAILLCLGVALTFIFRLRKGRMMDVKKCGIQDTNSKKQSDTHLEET

This experiment addresses Programmed cell death 1 ligand 1 (Homo sapiens, UniProt Q9NZQ7). The experiment in a line: Enzyme-Linked Immunosorbent Assay—ELISA: 96 Well plates were coated with […] of human PD-L1 (obtained from R&D) in PBS overnight at 4° C. The wells were then blocked with 2% BSA in PBS (W/V) with 0.05% TWEEN-20 for 1 hour at 37° C. The plates were washed 3 times with PBS/0.05% TWEEN-20 and the compounds were serial diluted (1:5) in dilution medium and added to the ELISA plates. Human PD-1 and biotin 0.31 μg/mL (ACRO Biosystems) were added and incubated for 1 hour at 37° C. then washed 3 times with PBS/0.05% TWEEN-20. A second block was performed with 2% BSA in PBS (W/V)/0.05% TWEEN-20 for 10 min at 37° C. and the plates were washed 3 times with PBS/0.05% TWEEN-20. Streptavidin-HRP was added for 1 hour at 37° C. then the plates were washed 3 times with PBS/0.05% TWEEN-20. TMB substrate was added and reacted for 20 min at 37° C. A stop solution (2 N aqueous H2SO4) was added. The absorbance was read at 450 nm using a micro-plate spectrophotometer.
`COc1cc(-c2cccc(-c3cccc(NC(=O)c4cn(C)c(=O)n(C)c4=O)c3C)c2C)cc(F)c1CN` yielded a half-inhibitory concentration (IC50) of under 10 nM.

Molecule `COc1cc(-c2cccc(-c3cccc(NC(=O)c4ccc(C(N)=O)cn4)c3C)c2C)cc(F)c1CN` gave an IC50 of under 10 nM.

`COc1cc(-c2cccc(-c3cccc(NC(=O)c4cnc(C(N)=O)cn4)c3C)c2C)cc(F)c1CN`: the IC50 is under 10 nM.

As to `COc1cc(-c2cccc(-c3cccc(NC(=O)c4cn(C)c(=O)n(C)c4=O)c3Cl)c2Cl)cc(F)c1CN[C@@H]1CCOC[C@@H]1O`, the IC50 was under 10 nM.

`COc1cc(-c2cccc(-c3cccc(NC(=O)c4cn(C)c(=O)n(C)c4=O)c3Cl)c2Cl)cc(F)c1CN[C@@H]1CNC(=O)C1` registered an IC50 of under 10 nM.

As to `COc1cc(-c2cccc(-c3cccc(NC(=O)c4cn(C)c(=O)n(C)c4=O)c3F)c2Cl)cc(F)c1CNCC1CCC(=O)N1` (stereo not given), the IC50 was under 10 nM.

`COc1cc(-c2cccc(-c3cccc(NC(=O)c4ccc(OCC(=O)O)cn4)c3C)c2C)cc(F)c1CN` displayed an IC50 of under 10 nM.

In the case of `COc1cc(-c2cccc(-c3cccc(NC(=O)c4cncn(C)c4=O)c3C)c2Cl)cc(F)c1CN[C@@H]1CNC(=O)C1`, the IC50 was under 10 nM.

As to `COc1cc(-c2cccc(-c3cccc(Nc4nccc5nccnc45)c3C)c2Cl)cc(F)c1CN[C@@H]1CCOC[C@@H]1O`, the IC50 was under 10 nM.

Molecule `COc1cc(-c2cccc(-c3cccc(NC(=O)c4cn(C)c(=O)n(C)c4=O)c3C)c2C)cc(F)c1CN(C)CCO` showed an IC50 of under 10 nM.

One may read the IC50 as the concentration that gives 50% inhibition. A low value points to inhibition by little substance.
